Tested on: Caco-2 cells

Substance: Lucifer yellow [LY]
- permeability (Papp): ≤ 1 ×10⁻⁶ cm/s

From paper PMC6892585 (Bioorganic & medicinal chemistry, 2019)
